Results as given in ChEMBL document CHEMBL1201862, “PubChem BioAssay data set” (2004).
Calls of active or inactive are those of the source.

Legend:
[1] = target: T1, Calpain-2 catalytic subunit (Sus scrofa, UniProt P43367); assay: m-calpain protease blockers, concentration series – biochemical, fluorogenic peptide substrate, dose response (AID 1420); type: functional
T1 sequence (P43367 whole entry): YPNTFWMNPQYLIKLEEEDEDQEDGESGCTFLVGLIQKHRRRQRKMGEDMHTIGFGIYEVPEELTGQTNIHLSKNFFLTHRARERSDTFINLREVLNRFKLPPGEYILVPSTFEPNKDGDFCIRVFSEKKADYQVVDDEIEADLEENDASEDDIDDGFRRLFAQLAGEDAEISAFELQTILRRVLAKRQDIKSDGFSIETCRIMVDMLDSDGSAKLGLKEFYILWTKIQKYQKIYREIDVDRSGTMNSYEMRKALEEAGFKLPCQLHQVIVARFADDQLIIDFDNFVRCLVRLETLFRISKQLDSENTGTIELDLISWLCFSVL

Cytochrome P450 2C9 = Cytochrome P450 2C9 (Homo sapiens, UniProt P11712)
Cytochrome P450 1A2 = target: T2, Cytochrome P450 1A2 (Homo sapiens, UniProt P05177);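 also: PubChem cytochrome P450 panel assay, CYP1A2 panel member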
T2 sequence (P05177 whole entry): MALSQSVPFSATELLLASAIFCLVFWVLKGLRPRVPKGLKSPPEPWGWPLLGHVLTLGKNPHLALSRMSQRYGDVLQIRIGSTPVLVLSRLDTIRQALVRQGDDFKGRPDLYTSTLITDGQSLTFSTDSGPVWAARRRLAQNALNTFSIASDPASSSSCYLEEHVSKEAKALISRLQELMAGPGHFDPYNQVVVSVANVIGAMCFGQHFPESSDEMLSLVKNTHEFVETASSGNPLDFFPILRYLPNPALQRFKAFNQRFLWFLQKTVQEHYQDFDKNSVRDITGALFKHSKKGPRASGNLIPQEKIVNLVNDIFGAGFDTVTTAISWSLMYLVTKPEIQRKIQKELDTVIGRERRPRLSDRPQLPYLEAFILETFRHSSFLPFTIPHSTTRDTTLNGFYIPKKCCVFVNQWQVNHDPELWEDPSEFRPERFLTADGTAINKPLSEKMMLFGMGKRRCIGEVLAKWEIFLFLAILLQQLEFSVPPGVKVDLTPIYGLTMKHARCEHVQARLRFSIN

[2] = luciferase reporter signal suppression in cells – H4 neuroglioma cells, luminescence, dose response (AID 1990); type: functional, cell-based
[3] = Luminescence Cell-Based Dose Response HTS to Identify Inhibitors of 5'UTR Stem-Loop Driven Prion Protein mRNA Translation in H4 Neuroglioblastoma Cells. [Related pubchem assays: 1827 (Project Summary), 1813 (Primary HTS)]; type: functional
[4] = target: FAD-linked sulfhydryl oxidase ALR (Homo sapiens, UniProt P55789); assay: ALR-catalysed DTT oxidation blockers – biochemical, H2O2 detection, luminescence, cherry-pick, dose response (AID 493248)
[5] = alpha-synuclein stem-loop luciferase translation blockers – H4 neuroglioma cells, luminescence, confirmation (AID 1988); type: functional, cell-based
Cytochrome P450 2C19 = Cytochrome P450 2C19 (Homo sapiens, UniProt P33261); assay: Cytochrome panel assay with activity outcomes. Panel member name: p450-cyp2c19 Compounds with AC50 equal or less than 10 uM are considered active; type: functional; details: read-out: AC50
Cytochrome P450 3A4 = Cytochrome P450 3A4 (Homo sapiens, UniProt P08684);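 also: CYP3A4 tested as one member of a cytochrome P450 panel screen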
[6] = target: T3, Mannose-6-phosphate isomerase (Homo sapiens, UniProt P34949); assay: MPI inhibition at elevated mannose 6-phosphate – biochemical, fluorescence intensity, high mannose 6-phosphate, primary screen (AID 1220)
T3 sequence (P34949 whole entry): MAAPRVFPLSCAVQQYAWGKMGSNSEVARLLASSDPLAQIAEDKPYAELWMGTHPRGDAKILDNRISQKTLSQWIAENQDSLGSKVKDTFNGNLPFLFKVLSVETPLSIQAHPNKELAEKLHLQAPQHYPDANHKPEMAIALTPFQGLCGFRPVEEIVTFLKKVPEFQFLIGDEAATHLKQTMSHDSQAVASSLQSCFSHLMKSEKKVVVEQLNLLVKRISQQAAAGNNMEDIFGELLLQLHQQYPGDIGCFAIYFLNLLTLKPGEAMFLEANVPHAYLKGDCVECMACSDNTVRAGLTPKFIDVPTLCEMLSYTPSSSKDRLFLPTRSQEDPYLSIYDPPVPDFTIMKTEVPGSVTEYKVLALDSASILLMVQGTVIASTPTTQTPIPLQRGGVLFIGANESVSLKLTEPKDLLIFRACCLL

[7] = Luminescence Cell-Based Dose Confirmation HTS to Identify Inhibitors of Platelet Dense Granule Release. [Related pubchem assays: 1663 (Primary HTS), 1678 (Summary of Project)]; type: functional
[8] = target: Luciferin 4-monooxygenase (Photinus pyralis, UniProt P08659); assay: inhibition of purified Photinus pyralis luciferase – biochemical, luminescence, dose response (AID 1891)
[9] = target: T4, Rac GTPase-activating protein 1 (Homo sapiens, UniProt Q9H0H5); assay: blockers of MgcRacGAP-driven Rac1 GTP hydrolysis – biochemical, ADP Hunter fluorescence, primary and confirmatory, confirmation (AID 624330); type: functional
T4 sequence (Q9H0H5 whole entry): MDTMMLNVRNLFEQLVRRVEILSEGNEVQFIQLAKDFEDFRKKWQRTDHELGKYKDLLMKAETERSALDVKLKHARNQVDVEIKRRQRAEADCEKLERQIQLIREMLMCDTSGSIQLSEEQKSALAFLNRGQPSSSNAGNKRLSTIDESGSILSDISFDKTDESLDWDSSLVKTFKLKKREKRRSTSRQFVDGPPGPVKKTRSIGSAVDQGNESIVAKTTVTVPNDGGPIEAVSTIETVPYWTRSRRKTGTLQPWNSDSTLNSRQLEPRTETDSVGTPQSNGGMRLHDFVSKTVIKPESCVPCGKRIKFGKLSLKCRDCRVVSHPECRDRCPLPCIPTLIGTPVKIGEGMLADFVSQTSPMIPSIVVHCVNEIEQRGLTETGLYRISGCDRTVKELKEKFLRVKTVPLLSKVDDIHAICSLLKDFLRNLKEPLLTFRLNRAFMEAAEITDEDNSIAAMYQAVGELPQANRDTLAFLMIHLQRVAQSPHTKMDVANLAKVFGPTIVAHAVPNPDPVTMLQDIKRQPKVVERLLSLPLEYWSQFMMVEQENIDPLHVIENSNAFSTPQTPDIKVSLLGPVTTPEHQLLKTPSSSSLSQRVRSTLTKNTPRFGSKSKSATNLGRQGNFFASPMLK

[10] = HEK-293T viability loss after treatment – luminescence, T-cell screen hits, cytotoxicity control for TCR NF-kB inhibitor project, dose response (AID 489026); type: functional, cell-based;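 also: cells exposed to compound about 14 hours before the viability readout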
INS1 = assay: INS-1E survival protection against cytokine death – cell-based, luminescence, retest, dose response (AID 449756); type: functional; details: Rattus norvegicus, INS1;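 also: cell death triggered by IL-1 beta plus TNF-alpha plus IFN-gamma mixture; protective hits raise ATP signal compared with cytokine alone wells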
[11] = target: T5, Corticotropin-releasing factor receptor 2/Corticotropin-releasing factor-binding protein (Homo sapiens, UniProt P24387+Q13324); assay: activators of CRF receptor 2 with binding protein – uHTS hits, confirmation (AID 602473); type: functional; details: read-out: EC50_Mean
T5 sequence (Q13324 whole entry): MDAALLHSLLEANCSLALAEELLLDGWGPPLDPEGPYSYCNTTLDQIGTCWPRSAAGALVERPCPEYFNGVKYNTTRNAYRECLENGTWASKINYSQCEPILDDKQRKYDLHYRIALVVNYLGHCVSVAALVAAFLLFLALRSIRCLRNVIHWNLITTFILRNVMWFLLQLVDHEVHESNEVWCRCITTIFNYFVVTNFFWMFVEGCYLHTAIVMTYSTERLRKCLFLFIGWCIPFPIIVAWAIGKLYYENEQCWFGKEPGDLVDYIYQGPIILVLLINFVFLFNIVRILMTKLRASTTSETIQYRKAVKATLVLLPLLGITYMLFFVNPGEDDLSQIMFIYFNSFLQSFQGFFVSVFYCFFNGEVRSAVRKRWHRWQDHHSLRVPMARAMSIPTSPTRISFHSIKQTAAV
T5 sequence (P24387 whole entry): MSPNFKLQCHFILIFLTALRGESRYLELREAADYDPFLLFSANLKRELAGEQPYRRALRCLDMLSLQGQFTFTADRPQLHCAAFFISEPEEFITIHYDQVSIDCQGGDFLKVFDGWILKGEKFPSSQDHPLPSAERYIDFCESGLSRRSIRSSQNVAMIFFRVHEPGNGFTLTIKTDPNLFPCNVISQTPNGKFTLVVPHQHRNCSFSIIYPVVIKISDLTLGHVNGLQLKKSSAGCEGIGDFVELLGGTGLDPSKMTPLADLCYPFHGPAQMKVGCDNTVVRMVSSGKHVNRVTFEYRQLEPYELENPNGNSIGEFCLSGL

[12] = target: T5, Corticotropin-releasing factor receptor 2/Corticotropin-releasing factor-binding protein; assay: Dose Response confirmation of uHTS hits for small molecule antagonists of the CRF-binding protein and CRF-R2 receptor complex.; type: functional; details: read-out: IC50_Mean
Paired box protein Pax-8 = Paired box protein Pax-8 (Homo sapiens, UniProt Q06710); assay: PAX8 transcriptional activity inhibition in RMG-I – RMG-I cells, luciferase, cherry-pick, dose response (AID 687027); type: functional, cell-based;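 also: luciferase reporter driven by Pax8 target thyroperoxidase promoter measured by SteadyGlo luminescence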
Cytochrome P450 2D6 = Cytochrome P450 2D6 (Homo sapiens, UniProt P10635);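 also: CYP2D6 member of a cytochrome P450 panel assay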
[13] = viability of PTEN-deleted HCT116 cells – cell-based, HCT116 PTEN knockout, dose response (AID 1047); type: functional;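 also: HCT116 colon tumor cells with PTEN knocked out; cells exposed to compound for 60 hours before readout; potency for loss of cell viability measured by luminescence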
[14] = viability of HCT116 lacking mutant beta-catenin – cell-based, human colon tumor, dose response (AID 1045); type: functional;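 also: HCT116 colon tumor cells with beta catenin knocked out; cells exposed to compound for 60 hours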

Chain of FAD-linked sulfhydryl oxidase ALR (P55789 whole entry): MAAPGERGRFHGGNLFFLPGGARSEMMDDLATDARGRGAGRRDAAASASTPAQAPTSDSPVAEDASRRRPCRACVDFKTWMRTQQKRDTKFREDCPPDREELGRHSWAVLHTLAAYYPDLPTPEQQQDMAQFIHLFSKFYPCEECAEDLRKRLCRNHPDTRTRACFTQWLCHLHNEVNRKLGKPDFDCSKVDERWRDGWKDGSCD
Chain of Cytochrome P450 3A4 (P08684 whole entry): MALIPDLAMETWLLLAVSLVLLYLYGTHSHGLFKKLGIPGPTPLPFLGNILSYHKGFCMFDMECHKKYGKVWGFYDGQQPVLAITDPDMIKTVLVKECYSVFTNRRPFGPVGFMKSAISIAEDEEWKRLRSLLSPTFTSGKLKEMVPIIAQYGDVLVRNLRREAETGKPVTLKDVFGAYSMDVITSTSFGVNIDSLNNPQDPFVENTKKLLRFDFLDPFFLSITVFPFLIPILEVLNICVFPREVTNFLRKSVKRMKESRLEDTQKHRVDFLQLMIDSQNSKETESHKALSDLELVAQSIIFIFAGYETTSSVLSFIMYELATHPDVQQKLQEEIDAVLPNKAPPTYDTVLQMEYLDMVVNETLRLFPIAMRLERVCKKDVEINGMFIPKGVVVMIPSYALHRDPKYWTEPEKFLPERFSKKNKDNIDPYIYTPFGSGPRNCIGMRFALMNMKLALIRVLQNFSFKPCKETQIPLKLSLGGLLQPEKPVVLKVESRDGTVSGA
Chain of Cytochrome P450 2C9 (P11712 whole entry): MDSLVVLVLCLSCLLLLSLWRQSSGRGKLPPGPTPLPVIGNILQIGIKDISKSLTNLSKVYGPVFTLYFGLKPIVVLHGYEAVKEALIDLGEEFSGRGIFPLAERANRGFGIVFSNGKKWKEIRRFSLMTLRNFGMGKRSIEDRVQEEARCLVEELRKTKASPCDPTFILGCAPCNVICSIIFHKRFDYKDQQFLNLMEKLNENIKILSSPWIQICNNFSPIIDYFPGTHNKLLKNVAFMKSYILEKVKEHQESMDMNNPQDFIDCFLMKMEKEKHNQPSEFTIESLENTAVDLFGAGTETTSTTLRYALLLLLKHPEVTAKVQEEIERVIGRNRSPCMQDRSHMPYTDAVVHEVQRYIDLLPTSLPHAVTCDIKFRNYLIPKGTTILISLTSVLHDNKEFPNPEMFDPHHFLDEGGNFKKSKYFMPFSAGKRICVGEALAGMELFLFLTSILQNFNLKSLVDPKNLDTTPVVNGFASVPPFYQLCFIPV
Chain of Cytochrome P450 2C19 (P33261 whole entry): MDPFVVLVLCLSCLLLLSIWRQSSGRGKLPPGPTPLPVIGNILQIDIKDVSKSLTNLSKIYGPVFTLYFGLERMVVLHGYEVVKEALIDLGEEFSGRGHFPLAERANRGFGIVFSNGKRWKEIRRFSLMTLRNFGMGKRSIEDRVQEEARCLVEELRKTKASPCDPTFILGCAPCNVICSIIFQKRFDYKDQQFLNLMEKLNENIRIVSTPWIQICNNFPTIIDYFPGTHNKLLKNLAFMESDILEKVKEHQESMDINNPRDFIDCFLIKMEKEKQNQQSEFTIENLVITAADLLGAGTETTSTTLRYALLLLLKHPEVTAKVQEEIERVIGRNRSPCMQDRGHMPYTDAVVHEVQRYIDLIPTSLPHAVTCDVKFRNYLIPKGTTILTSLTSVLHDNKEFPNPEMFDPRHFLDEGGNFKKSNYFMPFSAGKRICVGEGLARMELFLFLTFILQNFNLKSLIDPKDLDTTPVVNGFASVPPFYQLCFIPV
Chain of Cytochrome P450 2D6 (P10635 whole entry): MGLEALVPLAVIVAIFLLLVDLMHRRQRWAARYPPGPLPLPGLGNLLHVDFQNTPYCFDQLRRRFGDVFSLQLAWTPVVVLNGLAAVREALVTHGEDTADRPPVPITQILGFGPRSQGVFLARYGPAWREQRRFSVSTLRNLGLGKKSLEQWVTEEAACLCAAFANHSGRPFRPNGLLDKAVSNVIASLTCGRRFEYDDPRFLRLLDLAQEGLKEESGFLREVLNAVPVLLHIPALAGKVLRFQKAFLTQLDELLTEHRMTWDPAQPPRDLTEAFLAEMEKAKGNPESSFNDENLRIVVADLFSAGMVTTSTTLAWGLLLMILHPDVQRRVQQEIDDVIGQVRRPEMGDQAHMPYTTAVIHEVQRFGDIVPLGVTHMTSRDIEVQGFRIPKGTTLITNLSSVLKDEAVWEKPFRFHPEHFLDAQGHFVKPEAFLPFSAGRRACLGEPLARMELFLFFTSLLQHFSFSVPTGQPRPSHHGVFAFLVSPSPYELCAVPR
Chain of Luciferin 4-monooxygenase (P08659 whole entry): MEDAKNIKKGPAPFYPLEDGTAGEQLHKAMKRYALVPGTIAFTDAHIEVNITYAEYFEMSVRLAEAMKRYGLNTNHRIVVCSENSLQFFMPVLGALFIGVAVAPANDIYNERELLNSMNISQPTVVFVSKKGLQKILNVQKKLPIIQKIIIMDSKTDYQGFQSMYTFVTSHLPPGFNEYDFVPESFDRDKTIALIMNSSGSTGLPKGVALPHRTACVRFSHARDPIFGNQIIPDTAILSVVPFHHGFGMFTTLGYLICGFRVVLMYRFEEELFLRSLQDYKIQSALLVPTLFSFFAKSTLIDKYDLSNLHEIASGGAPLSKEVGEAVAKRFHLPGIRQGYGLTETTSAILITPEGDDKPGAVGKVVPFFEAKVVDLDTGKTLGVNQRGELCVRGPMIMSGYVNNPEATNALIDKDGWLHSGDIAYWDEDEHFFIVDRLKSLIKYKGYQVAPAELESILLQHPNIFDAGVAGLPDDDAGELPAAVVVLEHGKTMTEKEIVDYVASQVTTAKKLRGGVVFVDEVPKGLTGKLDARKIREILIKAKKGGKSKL
Chain of Paired box protein Pax-8 (Q06710 whole entry): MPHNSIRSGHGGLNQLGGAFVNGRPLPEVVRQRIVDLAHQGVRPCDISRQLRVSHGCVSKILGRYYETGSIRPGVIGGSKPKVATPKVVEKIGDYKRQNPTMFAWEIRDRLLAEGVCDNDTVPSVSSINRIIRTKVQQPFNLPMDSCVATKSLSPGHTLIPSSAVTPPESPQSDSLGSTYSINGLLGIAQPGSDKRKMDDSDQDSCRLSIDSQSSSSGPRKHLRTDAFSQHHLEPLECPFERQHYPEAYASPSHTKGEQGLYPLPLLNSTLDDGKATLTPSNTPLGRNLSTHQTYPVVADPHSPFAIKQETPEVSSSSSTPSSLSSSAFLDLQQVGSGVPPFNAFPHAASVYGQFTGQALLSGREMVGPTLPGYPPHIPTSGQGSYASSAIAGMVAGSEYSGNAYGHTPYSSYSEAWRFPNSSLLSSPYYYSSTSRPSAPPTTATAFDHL

## CCOC(=O)N1CCN(C(=O)c2ccc(NS(C)(=O)=O)cc2)CC1
[1]
  IC50: > 50 µM (not active)

## CCCCOc1ccc(C(=O)OC(C)CN(C)C)cc1 (centres undefined)
[1]
  IC50: > 50 µM (not active)

## NNC(=O)Cc1cccnc1
Cytochrome P450 2C9
  AC50: inconclusive
Cytochrome P450 1A2
  AC50: 0.631 µM (inconclusive)

## O=C(COc1ccc(F)cc1)NN1C(=O)CSC1=S
[1]
  IC50: 1.42 µM (not active)

## Cc1[nH]c2ccc(-c3nnc(S)n3C)cc2c1C
[2]
  EC50: 8.15 µM (active)
[3]
  EC50: 19.2 µM (active)
[4]
  AC50: 0.664 µM (active)
[5]
  EC50: 14 µM (active)

## C[S+]([O-])c1ccccc1-c1nc(-c2cccc(Cl)c2)no1 (centres undefined)
[1]
  IC50: > 50 µM (not active)

## Cc1cccc(C(=O)ON=C(N)c2cccc([N+](=O)[O-])c2)c1
Cytochrome P450 2C9
  AC50: inconclusive
Cytochrome P450 2C19
  AC50: 7.08 µM (inconclusive)
Cytochrome P450 3A4
  AC50: 17.8 µM (inconclusive)

## Oc1ccc(N2CCN(c3nnnn3-c3ccccc3)CC2)cc1
[4]
  AC50: 1.9 µM (active)

## CC(=O)N1CCN(S(=O)(=O)c2cccc(C(=O)Nc3ccccc3N3CCCC3)c2)CC1
[4]
  AC50: 3.27 µM (active)

## CN(C(=S)Nc1ccc(Oc2ccccc2)cc1)c1ccc(O)cc1
[6]
  IC50: > 50 µM (not active)

## COc1ccccc1-c1cc(NCc2ccccc2)ncn1
Cytochrome P450 2C9
  AC50: inconclusive

## CCOc1cc(CNc2ccc3[nH]c(O)nc3c2)ccc1OCC(=O)NC(C)(C)C
[7]
  EC50: 12 µM (active)
[6]
  IC50: > 50 µM (not active)
[8]
  EC50: > 112 µM (not active)
[9]
  IC50: 60.2 µM (active)

## CCSc1nnc(NC(=O)c2cccs2)s1
[1]
  IC50: 15 µM (not active)

## CCSc1nnc(NC(=O)c2cccc(S(=O)(=O)N(C)c3ccc(C)cc3)c2)s1
[4]
  AC50: 1.12 µM (active)

## Cc1cc(C)cc(C(=N)c2ccccc2Cc2cccc3ccccc23)c1
Cytochrome P450 2C9
  AC50: inconclusive
Cytochrome P450 3A4
  AC50: 2.51 µM (inconclusive)

## COc1cc(Cn2c(-c3nonc3N)nc3ccccc32)ccc1C
[2]
  EC50: 9.66 µM (inconclusive)
[3]
  EC50: 10.3 µM (active)
[10]
  IC50: > 80 µM (inactive)
[5]
  EC50: 7.81 µM (active)

## COC(=O)CNC(=O)c1sc2ncn(CC(=O)Nc3ccc(C)c(Cl)c3)c(=O)c2c1C
[1]
  IC50: 1.82 µM (not active)

## COc1ccc(C(=O)N2CCN(c3ccc([N+](=O)[O-])c(NCCc4ccc(OC)c(OC)c4)c3)CC2)cc1
INS1
  AC50: 2.53 µM (active)
[10]
  IC50: > 80 µM (inactive)

## Cc1ccc(NCCC(=O)c2cccc([N+](=O)[O-])c2)c(C)c1
[6]
  IC50: > 50 µM (not active)

## Cc1ccc(C)c2sc(NC(=O)c3ccc(N4CCCCC4)c([N+](=O)[O-])c3)nc12
Cytochrome P450 2C9
  AC50: inconclusive
Cytochrome P450 3A4
  AC50: 3.98 µM (inconclusive)

## CC(C)Nc1ccc(C(CC(N)=O)NC(=O)Cc2ccc(Br)cc2)cc1[N+](=O)[O-] (centres undefined)
[10]
  IC50: > 80 µM (inactive)

## CNc1nc(C)cc(C)c1S(=O)(=O)c1ccc(Cl)cc1
Cytochrome P450 2C9
  AC50: inconclusive
Cytochrome P450 1A2
  AC50: 28.2 µM (inconclusive)

## COc1ccc(N2C(=O)CSC2c2ccccc2)cc1 (centres undefined)
[4]
  AC50: 1.9 µM (active)

## CCc1ccc(N2C(=O)C(Cl)=C(Nc3ccc(C(=O)N4CCCC4)cc3)C2=O)cc1
[10]
  IC50: > 80 µM (inactive)

## COc1ccc2c(c1)-c1nc(/N=C/c3ccc(O)cc3)sc1CC2
[11]
  EC50: > 53 µM (inactive)
[12]
  IC50: > 47.1 µM (inactive)
[6]
  IC50: > 50 µM (not active)

## CN(N=Nc1[nH]cnc1C(N)=O)C1CCCCC1
Paired box protein Pax-8
  AC50: 6.78 µM (active)

## CCN(CC)c1ccc(/C=N/Nc2nc(C)cc(O)n2)cc1
Cytochrome P450 2D6
  AC50: 12.6 µM (inconclusive)
Cytochrome P450 2C9
  AC50: inconclusive
Cytochrome P450 2C19
  AC50: 22.4 µM (inconclusive)
Cytochrome P450 1A2
  AC50: 25.1 µM (inconclusive)
[4]
  AC50: 0.456 µM (active)

## CCOc1cc(/C=N/n2cnnc2)ccc1OS(=O)(=O)c1ccccc1
[1]
  IC50: > 50 µM (not active)

## CCCCC(=O)N/N=C(\C)CC(=O)Nc1cc(Cl)ccc1OC
Cytochrome P450 2C9
  AC50: inconclusive
Cytochrome P450 1A2
  AC50: 12.6 µM (inconclusive)

## CCN1CCN(c2cc(C)c3cc(NC(=O)c4cncc(Br)c4)ccc3n2)CC1
[13]
  EC50: 16.2 µM (active)
[14]
  EC50: 13.9 µM (active)
